Measured values taken from patent US11173158B2, “Medicinal agent and beverage/food for preventing cerebral dysfunction and improving same” (PTC Therapeutics MP, Inc., priority 2010, dated 2021).
Entries after “also recorded” stand apart in the source; their conditions may differ.

What was measured:
PC12 cells = assay: Total amount of biopterin in PC12 cells after addition to culture medium; format: cell-based; details: 100 μM added, 0-180 min, FIG. 2A
Experimental: (§1) In Example 1, where PC12 cells and RBL2H3 cells were used as aromatic monoamine synthesizing cells and sepiapterin was added to a culture medium, evaluation was made for a total amount of biopterin in the cells (a total amount of tetrahydrobiopterin, and its oxidant, dihydrobiopterin and biopterin, the same shall apply hereinafter).
(§2) The PC12 cells are cultured cells having properties of a neuron and it is known that they synthesize dopamine, noradrenaline and adrenaline, with tetrahydrobiopterin used as a coenzyme. The RBL2H3 cells are cultured cells having properties of a mast cell and it is known that they synthesize serotonin, with tetrahydrobiopterin used as a coenzyme. […]
(§3) A total amount of biopterin in the cells was measured by using a system of high performance liquid chromatography/fluorescence detection (HPLC/FD) according to the Fukusima-Nixon method (refer to Non-Patent Document 8).
(§4) A principle of the Fukushima-Nixon method is as follows. Upon oxidation with iodine under strong acid or alkaline conditions, tetrahydrobiopterin is quantitatively oxidized into oxidized-form biopterin under acid conditions and oxidized into oxidized-form pterin in which a side chain in the 6th-class position is removed under alkaline conditions. […] The oxidized-form biopterin and the oxidized-form pterin have strong natural fluorescent characteristics (excitation: 350 nm, fluorescence: 450 nm). […]

RBL2H3 cells = assay: Total amount of biopterin in RBL2H3 cells after addition to culture medium; format: cell-based; details: 100 μM added, 0-180 min, FIG. 2B
Experimental: as §1, §2, §3, §4

SD rats = assay: Amounts of tetrahydrobiopterin, serotonin and 5-hydroxyindoleacetic acid in rat brain after oral administration; format: in vivo; details: 0-8 hours after administration; for amount of tetrahydrobiopterin in the brain: FIG. 5A
Experimental: In Example 4, rats were used to measure amounts of tetrahydrobiopterin, serotonin and 5-hydroxyindoleacetic acid in the brain on administration of sepiapterin. Rats used were SD rats (7-8 week old, males) purchased from Japan SLC, Inc. The rats were kept in a dark place for 12 hours and in a light place for 12 hours and fed ad libitum with a diet (“MM-3” made by Funabashi Farm Co., Ltd.) and sterilized tap water as drinking water. Sepiapterin or tetrahydrobiopterin was dissolved in 10 mM hydrochloric acid, the resultant of which was orally administered to the rats (n=6) under diethylether anesthesia. After 1, 1.5, 2, 3, 4, 6 and 8 hours, the brains were excised under pentobarbital sodium anesthesia (pentobarbital was intraperitoneally administered at 40 mg/kg five minutes before), and the brain was divided into two portions at the median line to obtain left and right brain samples. Rats not treated with sepiapterin or tetrahydrobiopterin were used as samples at 0 hours after administration according to the same procedures. […] Amounts of serotonin and 5-hydroxyindoleacetic acid in the brain were calculated by adding 3.5 times the volume of 1.43% ascorbic acid-containing 100 mM hydrochloric acid which contains N-methyl serotonin as an internal standard to a right brain sample, homogenizing brain tissues, adding […] (final concentration of 5.5%) thereto, ice-cooling the resultant for removing protein and treating a supernatant thereof in a system of high performance liquid chromatography/fluorescence detection (HPLC/FD), (refer to Non-Patent Document 9). In the high performance liquid chromatography, as with Example 1, etc., “Fine-SIL-C18-5T (made by JASCO Corporation)” was used as a column. […] In the system of high performance liquid chromatography/fluorescence detection (HPLC/FD), 5-hydroxytryptophan (5HTP), serotonin, N-methyl serotonin, tryptophan and 5-hydroxyindoleacetic acid are eluted in the above order, thus making it possible to determine quantitatively these substances at the same time.

hph-1 mice = assay: Amount of serotonin in brain of hph-1 mice after oral administration; format: in vivo, mouse; details: oral 20 mg/kg twice (2 h apart), brain 6 hours after first administration, FIG. 6
Experimental: The mice used were those of “hph-1” which were provided by Dr. […] (Institute of Metabolic Disease, Baylor University Medical Center, Dallas, Tex. 75226, USA). The mice are characterized as being defective in biosynthesis functions of tetrahydrobiopterin, with the level of tetrahydrobiopterin in the brain being from 40 to 50% as compared with ordinary mice. The mice were bred in a dark place for 12 hours and also in a light place for 12 hours and fed ad libitum with a diet (“MM-3” made by Funabashi Farm Co., Ltd.) and sterilized tap water as drinking water. An amount of serotonin was measured by dissolving sepiapterin or tetrahydrobiopterin in 0.01 M hydrochloric acid, thereafter administering orally each of the resultants at 20 mg/kg to the mice, giving another oral administration at the same dose two hours thereafter, and excised the brains from each mouse six hours after the first administration (n=7 in a group treated with sepiapterin, and n=8 in a group treated with tetrahydrobiopterin). […] In a control group, measurement was made similarly by orally administering 0.01M hydrochloric acid.

NZB mice = assay: Forced swim test in mice; format: in vivo, mouse; details: intraperitoneal single dose 10 mg/kg, test after 40 minutes, five-minute swimming, FIG. 7
Experimental: In Example 6, the mice were subjected to a forced swim test after administration of sepiapterin. The forced swim test of the mice is a test method for evaluating antidepressant effects, and length of “immobile” time is a criterion of depression. Evaluation is made in such a manner that the shorter the “immobile” time is, the greater the antidepressant effects are. The mice used were NZB mice purchased from. Japan SLC, Inc (7-week old males). The mice were maintained in a dark place for 12 hours and in a light place for 12 hours and fed ad libitum with a diet (“MM-3” made by Funabashi Farm Co., Ltd.) and sterilized tap water as drinking water, except when they were constrained in an experiment. The mice are characterized in that they are more likely to develop an auto-immune disease with advancement of age. […] The mice which had been subjected to 15-minute preliminary swimming without administration of a drug, etc., on the previous day were used in the experiment. The mice were intraperitoneally administered tetrahydrobiopterin (n=7) or sepiapterin (n=5) at a single dose of 10 mg/kg and subjected to a forced swim test after 40 minutes to measure “immobile” time. The test was conducted under dim light by using a 15 cm-across and 15 cm-deep water tank kept at a temperature of 22° C. “Immobile” time was measured by calculating an added value of “immobile” time during five-minute-swimming. […]

| amount of tetrahydrobiopterin in the brain (SD rats) | Compound | change in the total amount of biopterin in the cells (PC12 cells) | change in the total amount of biopterin in the cells (RBL2H3 cells) | amount of serotonin in the brain (SD rats; FIG. 5B) | amount of serotonin in the brain (hph-1 mice) | "immobile" time in forced swim test (NZB mice) |
| --- | --- | --- | --- | --- | --- | --- |
| significant increase | C[C@H](O)C(=O)C1=Nc2c(nc(N)[nH]c2=O)NC1 [sepiapterin, 7,8-Dihydro-6-[(S)-2-hydroxy-1-oxopropyl]-pterin] | remarkable increase | remarkable increase | significantly increased | significant increase | significantly short |
| did not show an increase | C[C@H](O)[C@H](O)[C@H]1CNc2nc(N)[nH]c(=O)c2N1 [tetrahydrobiopterin, Tetrahydrobiopterin] | substantially no change; also recorded: slight increase | substantially no change; also recorded: slight increase | – | – | – |
